# ChEMBL document CHEMBL6127119 (J Med Chem, 2024)
# Legend:
# Assay type in all cases: functional
# Details in all cases: time 16-24 hrs
# [1] = test system: Staphylococcus aureus; assay: Antibacterial activity against methicillin-susceptible Staphylococcus aureus incubated for 16 to 24 hrs by CLSI based broth microdilution method
# [2] = test system: Staphylococcus aureus; assay: Antibacterial activity against vancomycin-intermediate Staphylococcus aureus incubated for 16 to 24 hrs by CLSI based broth microdilution method
# [3] = test system: Enterococcus faecium; assay: Antibacterial activity against vancomycin-resistant Enterococcus faecium harboring VanA phenotype incubated for 16 to 24 hrs by CLSI based broth microdilution method
# [4] = test system: Enterococcus faecium; assay: Antibacterial activity against vancomycin-resistant Enterococcus faecium harboring VanM phenotype incubated for 16 to 24 hrs by CLSI based broth microdilution method
# [5] = test system: Enterococcus faecium; assay: Antibacterial activity against vancomycin-resistant Enterococcus faecium harboring VanB phenotype incubated for 16 to 24 hrs by CLSI based broth microdilution method
# [6] = test system: Escherichia coli; assay: Antibacterial activity against Escherichia coli AB1157 incubated for 16 to 24 hrs by CLSI based broth microdilution method
# [7] = test system: Acinetobacter baumannii; assay: Antibacterial activity against Carbapenem-resistant Acinetobacter baumannii clinical isolate incubated for 16 to 24 hrs by CLSI based broth microdilution method
# [8] = test system: Klebsiella pneumoniae; assay: Antibacterial activity against Klebsiella pneumoniae clinical isolate incubated for 16 to 24 hrs by CLSI based broth microdilution method
# [9] = test system: Pseudomonas aeruginosa; assay: Antibacterial activity against Pseudomonas aeruginosa PAO1 incubated for 16 to 24 hrs by CLSI based broth microdilution method
smiles,measurement,setting,value
CC(C)C[C@@H](N)C(=O)N[C@H]1C(=O)N[C@@H](CC(N)=O)C(=O)N[C@H]2C(=O)N[C@H]3C(=O)N[C@H](C(=O)N[C@H](C(=O)NCCc4ccc(-c5ccc(CN)cc5)cc4)c4cc(O)cc(O)c4-c4cc3ccc4O)[C@H](O)c3ccc(c(Cl)c3)Oc3cc2cc(c3O[C@@H]2O[C@H](CO)[C@@H](O)[C@H](O)[C@H]2O[C@H]2C[C@](C)(N)[C@H](O)[C@H](C)O2)Oc2ccc(cc2Cl)[C@H]1O,MIC,[1],0.25 µg/mL
same,MIC,[2],1 µg/mL
same,MIC,[3],4 µg/mL
same,MIC,[4],8 µg/mL
same,MIC,[5],8 µg/mL
same,MIC,[6],8 µg/mL
same,MIC,[7],128 µg/mL
same,MIC,[8],> 128 µg/mL
same,MIC,[9],> 128 µg/mL
CC(C)C[C@@H](N)C(=O)N[C@H]1C(=O)N[C@@H](CC(N)=O)C(=O)N[C@H]2C(=O)N[C@H]3C(=O)N[C@H](C(=O)N[C@H](C(=O)NCCCCCCCCNC(=N)N)c4cc(O)cc(O)c4-c4cc3ccc4O)[C@H](O)c3ccc(c(Cl)c3)Oc3cc2cc(c3O[C@@H]2O[C@H](CO)[C@@H](O)[C@H](O)[C@H]2O[C@H]2C[C@](C)(N)[C@H](O)[C@H](C)O2)Oc2ccc(cc2Cl)[C@H]1O,MIC,[1],0.5 µg/mL
same,MIC,[2],2 µg/mL
same,MIC,[3],16 µg/mL
same,MIC,[4],32 µg/mL
same,MIC,[5],8 µg/mL
same,MIC,[6],8 µg/mL
same,MIC,[7],64 µg/mL
same,MIC,[8],> 128 µg/mL
same,MIC,[9],128 µg/mL
CC(C)C[C@@H](N)C(=O)N[C@H]1C(=O)N[C@@H](CC(N)=O)C(=O)N[C@H]2C(=O)N[C@H]3C(=O)N[C@H](C(=O)N[C@H](C(=O)NCCNC(=O)[C@@H](N)CCCNC(=N)N)c4cc(O)cc(O)c4-c4cc3ccc4O)[C@H](O)c3ccc(c(Cl)c3)Oc3cc2cc(c3O[C@@H]2O[C@H](CO)[C@@H](O)[C@H](O)[C@H]2O[C@H]2C[C@](C)(N)[C@H](O)[C@H](C)O2)Oc2ccc(cc2Cl)[C@H]1O,MIC,[1],1 µg/mL
same,MIC,[2],2 µg/mL
same,MIC,[3],16 µg/mL
same,MIC,[4],64 µg/mL
same,MIC,[5],16 µg/mL
same,MIC,[6],32 µg/mL
same,MIC,[7],64 µg/mL
same,MIC,[8],> 128 µg/mL
same,MIC,[9],128 µg/mL
CC(C)C[C@@H](N)C(=O)N[C@H]1C(=O)N[C@@H](CC(N)=O)C(=O)N[C@H]2C(=O)N[C@H]3C(=O)N[C@H](C(=O)N[C@H](C(=O)NCCN)c4cc(O)cc(O)c4-c4cc3ccc4O)[C@H](O)c3ccc(c(Cl)c3)Oc3cc2cc(c3O[C@@H]2O[C@H](CO)[C@@H](O)[C@H](O)[C@H]2O[C@H]2C[C@](C)(N)[C@H](O)[C@H](C)O2)Oc2ccc(cc2Cl)[C@H]1O,MIC,[1],2 µg/mL
same,MIC,[2],4 µg/mL
same,MIC,[3],128 µg/mL
same,MIC,[4],128 µg/mL
same,MIC,[5],128 µg/mL
same,MIC,[6],32 µg/mL
same,MIC,[7],128 µg/mL
same,MIC,[8],> 128 µg/mL
same,MIC,[9],> 128 µg/mL
CC(C)C[C@@H](N)C(=O)N[C@H]1C(=O)N[C@@H](CC(N)=O)C(=O)N[C@H]2C(=O)N[C@H]3C(=O)N[C@H](C(=O)N[C@H](C(=O)NCCCCCCNC(=N)N)c4cc(O)cc(O)c4-c4cc3ccc4O)[C@H](O)c3ccc(c(Cl)c3)Oc3cc2cc(c3O[C@@H]2O[C@H](CO)[C@@H](O)[C@H](O)[C@H]2O[C@H]2C[C@](C)(N)[C@H](O)[C@H](C)O2)Oc2ccc(cc2Cl)[C@H]1O,MIC,[1],0.5 µg/mL
same,MIC,[2],2 µg/mL
same,MIC,[3],32 µg/mL
same,MIC,[4],32 µg/mL
same,MIC,[5],16 µg/mL
same,MIC,[6],8 µg/mL
same,MIC,[7],128 µg/mL
same,MIC,[8],> 128 µg/mL
same,MIC,[9],> 128 µg/mL
CC(C)C[C@@H](N)C(=O)N[C@H]1C(=O)N[C@@H](CC(N)=O)C(=O)N[C@H]2C(=O)N[C@H]3C(=O)N[C@H](C(=O)N[C@H](C(=O)NCCCCCCN)c4cc(O)cc(O)c4-c4cc3ccc4O)[C@H](O)c3ccc(c(Cl)c3)Oc3cc2cc(c3O[C@@H]2O[C@H](CO)[C@@H](O)[C@H](O)[C@H]2O[C@H]2C[C@](C)(N)[C@H](O)[C@H](C)O2)Oc2ccc(cc2Cl)[C@H]1O,MIC,[1],2 µg/mL
same,MIC,[2],8 µg/mL
same,MIC,[3],64 µg/mL
same,MIC,[4],64 µg/mL
same,MIC,[5],64 µg/mL
same,MIC,[6],32 µg/mL
same,MIC,[7],> 128 µg/mL
same,MIC,[8],> 128 µg/mL
same,MIC,[9],128 µg/mL
CC(C)C[C@@H](N)C(=O)N[C@H]1C(=O)N[C@@H](CC(N)=O)C(=O)N[C@H]2C(=O)N[C@H]3C(=O)N[C@H](C(=O)N[C@H](C(=O)NCc4ccc(-c5ccccc5CN)cc4)c4cc(O)cc(O)c4-c4cc3ccc4O)[C@H](O)c3ccc(c(Cl)c3)Oc3cc2cc(c3O[C@@H]2O[C@H](CO)[C@@H](O)[C@H](O)[C@H]2O[C@H]2C[C@](C)(N)[C@H](O)[C@H](C)O2)Oc2ccc(cc2Cl)[C@H]1O,MIC,[1],0.25 µg/mL
same,MIC,[2],0.5 µg/mL
same,MIC,[3],8 µg/mL
same,MIC,[4],4 µg/mL
same,MIC,[5],4 µg/mL
same,MIC,[6],8 µg/mL
same,MIC,[7],16 µg/mL
same,MIC,[8],> 128 µg/mL
same,MIC,[9],32 µg/mL
